Results published in PubChem BioAssay AID1963862 (Molecular Pharmacology Branch, DTP, NCI, 2024).
pIC50: −log10 of the molar value.

Tested on: KRAS patient-derived spheroids with HUVEC/MSC, viability
Test: Anticancer human tumor 941728-121-R-J1-PDC patient-derived lung adenocarcinoma cell line growth inhibition [KRAS2]
Details: for pIC50: curve of first compound; for viability, T/C: stronger effect = lower value
In short: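 KRAS-mutant tumor cells were grown as spheroids with HUVEC endothelial cells and human MSCs as stroma. Targeted agents were tested alone and with KRAS pathway inhibitors. Doses started at or near clinical Cmax, or 10 microM, descending half-log.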

[1] = second compound 0.1 µM, first compound 0.01 µM
[2] = second compound 0.1 µM, first compound 0.0316 µM
[3] = second compound 0.1 µM, first compound 0.1 µM
[4] = second compound 0.1 µM, first compound 0.316 µM
[5] = second compound 0.1 µM, first compound 1 µM
[6] = second compound 0.1 µM, first compound 3.16 µM
[7] = second compound 0.316 µM, first compound 0.01 µM
[8] = second compound 0.316 µM, first compound 0.0316 µM
[9] = second compound 0.316 µM, first compound 0.1 µM
[10] = second compound 0.316 µM, first compound 0.316 µM
[11] = second compound 0.316 µM, first compound 1 µM
[12] = second compound 0.316 µM, first compound 3.16 µM
[13] = second compound 1 µM, first compound 0.01 µM
[14] = second compound 1 µM, first compound 0.0316 µM
[15] = second compound 1 µM, first compound 0.1 µM
[16] = second compound 1 µM, first compound 0.316 µM
[17] = second compound 1 µM, first compound 1 µM
[18] = second compound 1 µM, first compound 3.16 µM
[19] = second compound 3.16 µM, first compound 0.01 µM
[20] = second compound 3.16 µM, first compound 0.0316 µM
[21] = second compound 3.16 µM, first compound 0.1 µM
[22] = second compound 3.16 µM, first compound 0.316 µM
[23] = second compound 3.16 µM, first compound 1 µM
[24] = second compound 3.16 µM, first compound 3.16 µM
[25] = second compound 10 µM, first compound 0.01 µM
[26] = second compound 10 µM, first compound 0.0316 µM
[27] = second compound 10 µM, first compound 0.1 µM
[28] = second compound 10 µM, first compound 0.316 µM
[29] = second compound 10 µM, first compound 1 µM
[30] = second compound 10 µM, first compound 3.16 µM
[31] = second compound 0.1 µM, first compound 10 µM
[32] = second compound 0.316 µM, first compound 10 µM
[33] = second compound 1 µM, first compound 10 µM
[34] = second compound 3.16 µM, first compound 10 µM
[35] = second compound 10 µM, first compound 10 µM
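Also: spheroids exposed to agents for seven days before readout.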

SMILES	pIC50 (second compound 0.1 µM)	pIC50 (second compound 0.316 µM)	pIC50 (second compound 1 µM)	pIC50 (second compound 3.16 µM)	pIC50 (second compound 10 µM)	viability, T/C [2] [%]	viability, T/C [3] [%]	viability, T/C [4] [%]	viability, T/C [5] [%]	viability, T/C [8] [%]	viability, T/C [9] [%]	viability, T/C [10] [%]	viability, T/C [11] [%]	viability, T/C [14] [%]	viability, T/C [15] [%]	viability, T/C [16] [%]	viability, T/C [17] [%]	viability, T/C [20] [%]	viability, T/C [21] [%]	viability, T/C [22] [%]	also measured
CC1COCCN1c1cc(-c2ccnn2C)c2ccnc(-c3ccn[nH]3)c2n1 (stereo not given) + CNCc1ccccc1-c1csc(C(C)Nc2nc(C)nc3cc(OC)c(OC)cc23)c1	7.63	> 8.00	> 8.00	> 8.00	> 8.00	43.3	39.4	31.7	28.2	37.1	29	22.8	22.9	29.4	18.8	19	14	1.18	1.37	0.47	viability, T/C [1]: 63.1%; viability, T/C [6]: 26.8%; viability, T/C [7]: 41.5%; viability, T/C [12]: 22.6%; viability, T/C [13]: 24.9%; viability, T/C [18]: 11.4%; viability, T/C [19]: 1.36%; viability, T/C [23]: 0.45%; viability, T/C [24]: 0.62%; viability, T/C [25]: 0.73%; viability, T/C [26]: 0.11%; viability, T/C [27]: 0.25%; viability, T/C [28]: 0.12%; viability, T/C [29]: 0.14%; viability, T/C [30]: 0.17%
CC1OCC2(CCN(c3cnc(Sc4ccnc(N)c4Cl)c(N)n3)CC2)C1N (stereo not given) + CNCc1ccccc1-c1csc(C(C)Nc2nc(C)nc3cc(OC)c(OC)cc23)c1	> 7.50	> 7.50	> 7.50	> 7.50	> 7.50	49.5	38.1	38.1	32.5	41	34.7	31.2	28.9	37.6	36.6	28.2	26.2	5.49	2.19	2.26	viability, T/C [6]: 35.3%; viability, T/C [31]: 34%; viability, T/C [12]: 30.2%; viability, T/C [32]: 30.1%; viability, T/C [18]: 20.9%; viability, T/C [33]: 17.8%; viability, T/C [23]: 2.13%; viability, T/C [24]: 0.72%; viability, T/C [34]: 0.85%; viability, T/C [26]: 0.11%; viability, T/C [27]: 0.12%; viability, T/C [28]: 0.4%; viability, T/C [29]: 0.22%; viability, T/C [30]: 1.25%; viability, T/C [35]: 0.16%
CCN1CCN(Cc2ccc(Nc3ncc(F)c(-c4cc(F)c5nc(C)n(C(C)C)c5c4)n3)nc2)CC1 + CNCc1ccccc1-c1csc(C(C)Nc2nc(C)nc3cc(OC)c(OC)cc23)c1	8.21	> 8.50	> 8.50	> 8.50	> 8.50	40	43.7	38.4	53	31	28.9	30.6	46.8	18.7	17.1	16.9	5.4	1.42	2.24	0.67	viability, T/C (second compound 0.1 µM, first compound 0.00316 µM): 58.2%; viability, T/C [1]: 43.9%; viability, T/C (second compound 0.316 µM, first compound 0.00316 µM): 44%; viability, T/C [7]: 38.5%; viability, T/C (second compound 1 µM, first compound 0.00316 µM): 22.1%; viability, T/C [13]: 25.4%; viability, T/C (second compound 3.16 µM, first compound 0.00316 µM): 1.35%; viability, T/C [19]: 1.57%; viability, T/C [23]: 2.46%; viability, T/C (second compound 10 µM, first compound 0.00316 µM): 0.72%; viability, T/C [25]: 0.55%; viability, T/C [26]: 0.84%; viability, T/C [27]: 0.24%; viability, T/C [28]: 0.74%; viability, T/C [29]: 0.15%
CCNC(=O)CC1N=C(c2ccc(Cl)cc2)c2cc(OC)ccc2-n2c(C)nnc21 (stereo not given) + CNCc1ccccc1-c1csc(C(C)Nc2nc(C)nc3cc(OC)c(OC)cc23)c1	7.19	> 7.50	> 7.50	> 7.50	> 7.50	53.8	48.9	40.2	35.5	38.7	37.1	27.8	25.8	30	27.2	20.7	17.4	1.35	2.8	0.83	viability, T/C [6]: 34.1%; viability, T/C [31]: 28.6%; viability, T/C [12]: 20.6%; viability, T/C [32]: 19.8%; viability, T/C [18]: 12.9%; viability, T/C [33]: 11%; viability, T/C [23]: 1.53%; viability, T/C [24]: 1.46%; viability, T/C [34]: 1.72%; viability, T/C [26]: 0.51%; viability, T/C [27]: 0.89%; viability, T/C [28]: 0.25%; viability, T/C [29]: 0.86%; viability, T/C [30]: 0.86%; viability, T/C [35]: 0.53%
Cn1nccc1Nc1nccc(-c2cc3c(s2)C(C)(C)N(CCN2CCOCC2)C3=O)n1 + CNCc1ccccc1-c1csc(C(C)Nc2nc(C)nc3cc(OC)c(OC)cc23)c1	7.09	> 7.50	> 7.50	> 7.50	> 7.50	70.3	46.4	37.4	37.9	40.3	37.9	34.8	32.3	35.6	30.3	31.6	21.3	1.11	2.35	1.61	viability, T/C [6]: 36.8%; viability, T/C [31]: 40.7%; viability, T/C [12]: 31%; viability, T/C [32]: 29.6%; viability, T/C [18]: 11.4%; viability, T/C [33]: 13.1%; viability, T/C [23]: 0.99%; viability, T/C [24]: 1.35%; viability, T/C [34]: 0.25%; viability, T/C [26]: 0.56%; viability, T/C [27]: 0.88%; viability, T/C [28]: 0.44%; viability, T/C [29]: 0.77%; viability, T/C [30]: 0.11%; viability, T/C [35]: 0.35%
